Assay results taken from ChEMBL document CHEMBL1158429, “Selective cytochrome P450 3A4 inhibitory activity of Amaryllidaceae alkaloids” (Bioorg Med Chem Lett, 2009).

Molecular target: Cytochrome P450 3A4 (Homo sapiens, UniProt P08684)
Test: Inhibition of human CYP3A4 assessed as biotransformation of 7-benzyloxyquinoline; call rule not given here
Type: ADME

Cytochrome P450 3A4, sequence (P08684 whole entry): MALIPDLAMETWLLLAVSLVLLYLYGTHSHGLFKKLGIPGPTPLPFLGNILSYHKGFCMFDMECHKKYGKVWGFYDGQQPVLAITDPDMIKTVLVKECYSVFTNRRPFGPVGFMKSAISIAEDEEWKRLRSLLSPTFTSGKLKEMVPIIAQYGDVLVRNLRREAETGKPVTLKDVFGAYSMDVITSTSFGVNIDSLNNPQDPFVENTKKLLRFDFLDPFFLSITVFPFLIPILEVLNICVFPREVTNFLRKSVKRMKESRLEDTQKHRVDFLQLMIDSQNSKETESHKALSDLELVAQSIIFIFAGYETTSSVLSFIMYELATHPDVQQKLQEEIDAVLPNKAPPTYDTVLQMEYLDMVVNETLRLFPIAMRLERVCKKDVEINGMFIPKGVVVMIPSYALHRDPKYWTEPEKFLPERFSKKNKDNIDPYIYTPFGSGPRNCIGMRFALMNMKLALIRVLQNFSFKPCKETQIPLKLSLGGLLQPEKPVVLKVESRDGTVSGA

Compound	Ki (read-out: Ki) [nM]	Ki (read-out: pKi (converted)) [nM]	Ki
CC(=O)O[C@H]1[C@H]2c3cc4c(cc3CN3CCC(=C[C@@H]1O)[C@H]23)OCO4	7600		
CC(=O)O[C@H]1[C@H]2c3cc4c(cc3CN3CCC(=C[C@@H]1OC(C)=O)[C@H]23)OCO4	11000		
CC(C)(C)[Si](C)(C)O[C@H]1C=C2CCN3Cc4cc5c(cc4[C@H]([C@@H]1O)[C@@H]23)OCO5	260		
CC(=O)O[C@H]1[C@H]2c3cc4c(cc3CN3CCC(=C[C@@H]1O[Si](C)(C)C(C)(C)C)[C@H]23)OCO4	210	158	
O[C@H]1[C@H]2c3cc4c(cc3CN3CCC(=C[C@@H]1O)[C@H]23)OCO4 [LYCORINE]			Not Active
O=C1N[C@@H]2C(=C[C@H](O)[C@@H](O)[C@H]2O)c2cc3c(c(O)c21)OCO3 [NARCICLASINE]	630		
O=C1N[C@H]2[C@H](O)[C@H](O)[C@@H](O)[C@H](O)[C@@H]2c2cc3c(c(O)c21)OCO3 [PANCRATISTATIN]			Not Active
